According to patent publication US3985798A, “11α-HOMO-PROSTANOIC ACIDS AND ESTERS” (American Cyanamid Company, priority 1975, dated 1976):

Tested on: basal gastric acid secretion
Assay: Inhibition of Total Acid Output in the Acute Gastric Fistula Rat (inhibition of basal gastric acid secretion)
Format: in vivo, Female Sprague-Dawley rats
Conditions: 10 mg./kg. intraduodenal, vs concurrent vehicle control; for Total Acid Output % Inhibition, 60"(A): sample A, 60 minutes; for Total Acid Output % Inhibition, 120"(B): sample B, 120 minutes
Source text: The natural prostaglandins have a broad spectrum of biological properties. Because of these diverse effects their potential therapeutic use is limited. […] On the other hand, they do inhibit gastic acid secretion and accordingly are potentially useful for the treatment of peptic ulcers, gastric hyperacidity and gastric erosion. Inhibition of basal gastric acid secretion can be determined by the following procedure. Female Sprague-Dawley rats weighing 140-160 grams are fasted in individual cages for 18-24 hours. The rats are then lightly anesthetized with ether and their front teeth extracted to avoid destruction of the plastic cannula. A midline incision is then made and the stomach and duodenum exposed. A flanged polyvinyl tube is inserted into the fundic portion of the stomach and secured with a purse string suture line using 4-0 Mersilene. The rat is then dosed by injection of the compound into the duodenum (1.0 ml. per 100 gram body weight). After dosing, the abdominal wall and skin are closed using metal wound clips. The rat is replaced in a cage containing a longitudinal slit to allow the polyvinyl tube to hang freely. An 8 ml. plastic collecting tube is attached to the flanged cannula and hangs freely below the cage. The first 30 minute sample is discarded designating this time as zero. The collecting tube is attached again and samples removed at the end of 60 and 120 minutes. These samples are referred to as A and B in the table. The hourly samples are then transferred to a 15 ml. centrifuge and centrifuged for 5-10 minutes. Total and sediment volume are then recorded with the supernatant volume being used as volume of secretion. A 1 ml. or less aliquot is then removed and placed in a 50 ml. beaker containing 10 ml. of distilled water. This sample is then titrated using 0.01N NaOH to pH 7.0 using a Beckman zeromatic pH meter, Volume, titratable acidity (meq/L), and total acid output (ueg/hour) are recorded. Percent inhibition is determined by comparison with the appropriate control. Groups of three rats were used for preliminary testing, and groups of six rats were used for dose-response evaluations. All compounds are administered in a vehicle consisting of 0.5% methocel, 0.4% Tween 80, and saline at a constant volume of 1 ml./100 gram rat. Samples are dispersed by sonification. Percent inhibition is calculated on basis of concurrent vehicle control.
In Table A which follows is given the effect on total acid output after 120 minutes of a 10 mg./kg. intraduodenal dose of representative compounds of this invention.

Row | Structure (SMILES) | Total Acid Output % Inhibition, 60"(A) [%] | Total Acid Output % Inhibition, 120"(B) [%]
1 | CCCCC[C@@H](O)/C=C/[C@H]1CC=CC(=O)[C@@H]1CCCCCCC(=O)O (relative stereo) [9-oxo-15-epi-hydroxy-11a-homo-10,13-trans-prostadienoic acid] | 43 | 47
2 | CCCCC[C@H](O)/C=C/[C@H]1CC=CC(=O)[C@@H]1CCCCCCC(=O)O (relative stereo) [dl-11a-homoprostaglandin A1, 9-oxo-15-hydroxy-11a-homo-10,13-trans-prostadienoic acid] | 35 | 33
3 | CCCCC[C@H](O)/C=C/[C@H]1C[C@H](O)CC(=O)[C@@H]1CCCCCCC(=O)O (relative stereo) [dl-11a-homoprostaglandin E1, 9-oxo-11α,15-dihydroxy-11a-homo-13-trans-prostenoic acid] | 69 | 74
